One test concerns the target T1, 24-hydroxylase (Homo sapiens, UniProt Q07973).
T1 sequence (Q07973 36-514): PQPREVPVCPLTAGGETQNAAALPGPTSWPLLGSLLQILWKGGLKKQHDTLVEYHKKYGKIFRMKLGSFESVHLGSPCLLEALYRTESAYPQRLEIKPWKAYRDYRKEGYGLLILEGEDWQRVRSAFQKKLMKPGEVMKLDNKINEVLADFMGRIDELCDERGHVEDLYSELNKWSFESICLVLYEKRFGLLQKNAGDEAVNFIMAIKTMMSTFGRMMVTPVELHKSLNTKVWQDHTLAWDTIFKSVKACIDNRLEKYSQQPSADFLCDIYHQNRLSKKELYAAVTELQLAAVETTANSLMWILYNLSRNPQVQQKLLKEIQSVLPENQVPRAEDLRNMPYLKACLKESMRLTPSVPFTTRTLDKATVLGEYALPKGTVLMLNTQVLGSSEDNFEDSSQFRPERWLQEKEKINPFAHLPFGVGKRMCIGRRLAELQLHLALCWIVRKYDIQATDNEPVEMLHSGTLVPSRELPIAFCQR
Description: 24-hydroxylase activity by level of 24.25(OH)2D3 in HL-60 cells. The test is classed as cell-based. Also noted: endogenous in cells; host or cells: HL-60. Conditions: paricalcitol 0.01 μM, arsenic trioxide 0.8 μM, 3 days. The procedure: HL-60 (A) and NB-4 (B) myeloid leukemia cell lines were treated with paricalcitol (0.01 μM for HL-60, 0.1 μM for NB-4) and/or arsenic trioxide (0.8 μM for HL-60, 0.6 μM for NB-4) for 3 days. Control cells were treated with vehicle alone. The levels of 24.25(OH)2D3 were measured by HPLC analysis.
The possibility that the arsenic trioxide inactivates the mitchondrial enzyme, 24-hydroxylase leading to an activation of the response of the cells to vitamin D was tested. The activity of 24-hydroxylase was examined by measuring its metabolite, 24.25(OH)2D3 by TLC analysis in leukemia cells. HL-60 and NB-4 myeloid leukemia cell lines were treated with paricalcitol (0.01 μM for HL-60, 0.1 μM for NB-4) and/or arsenic trioxide (0.8 μM for HL-60, 0.6 μM for NB-4) for 3 days. Control cells were treated with vehicle alone. Then the levels of 24.25(OH)2D3 were measured by TLC analysis. Paricalcitol alone increased the levels of 24.25(OH)2D3 in HL-60 and NB-4, while arsenic trioxide alone decreased its level compared to control cells (FIG. 11). […] The decrease of the levels of 24-hydroxylase by arsenic trioxide may explain the enhanced activity of paricalcitol by arsenic trioxide in leukemia cells.

The subject of another test is NCI-H929 cells. Description: TUNEL assay of apoptosis. The format is cell-based, human. Conditions: for apoptotic cells by TUNEL assay: 0.01 μM each, 3 days. As to the method:
In FIG. […] Results represent the mean±SD of three independent experiments. A TUNEL assay was performed for immunohistochemical detection and quantification of programmed cell death at the single cell level, based on labeling of DNA strand breaks using the In Situ Cell Death Detection, POD (Roche, Indianapolis, Ind.). Early apoptosis was also detected by measuring annexin V protein in the cell membrane using Annexin V-FITC Kit (CLONTECH, Palo Alto, Calif.) followed by flow cytometric analysis.

Test [1] has as its system NB-4 cells. Description: Western blot of cell lysates. The format is cell-based, human. As to the method:
(§1) Western blot analysis was used to determine the levels of proteins involved in cell cycle and differentiation. For western blot analysis, cells were washed twice in PBS, suspended in lysis buffer [50 mM Tris (pH 8.0), 150 mM NaCl, 0.1% SDS, 0.5% sodium deoxycholate, 1% NP40, […] phenylmethylsulfonyl fluoride, […] aprotinin, […] pepstatin, and […] leupetin] and placed on ice for 30 min. After centrifugation at 15,000×g for 15 min at 4° C., the suspension was collected. Protein concentrations were quantitated using the Bio-Rad assay (Bio-Rad Labolatories, Hercules, Calif.). Whole lysates ([…]) were resolved by 4-15% SDS polyacrylamide gel, transferred to an immobilon polyvinylidene difuride membrane (Amersham Corp., Arlington Heights, Ill.), and probed sequentially with a number of antibodies (p21WAF1, p27KIP1, PTEN, and GAPDH, Santa Cruz Biotechnology Inc., Santa Cruz, Calif.). The blots were developed using the Supersignal West Pico Chemiluminescent Substrate Kit (Pierce, Rockford, Ill.).
(§2) Western blot analysis was performed as follows: cells were washed twice in PBS, suspended in lysis buffer (50 mM Tris at pH 8.0, 150 mM NaCl, 0.1% SDS, 0.5% sodium deoxycholate, 1% Nonidet P-40, phenylmethylsulfonyl fluoride at 100 μg/mL, aprotinin at 2 μg/mL, pepstatin at 1 μg/mL, and leupetin at 10 μg/mL), and placed on ice for 30 minutes. After centrifugation at 15,000×g for 15 minutes at 4° C., the suspension was collected. Protein concentrations were quantitated by using the Bio-Rad protein Assay Dye Reagent Concentrate (Bio-Rad Laboratories, Hercules, Calif.) according to the manufacture's recommendation. Whole cell lysates (40 μg) were resolved by SDS-polyacrylamide gel electrophoresis in a 4%-15% gel, transferred to a polyvinylidene difuride membrane (Immobilon, Amersham Corp., Arlington Heights, Ill.), and probed sequentially with antibodies against the following proteins: VDR, RXR, CEBPβ, Rb, Bcl-2, Bcl-XL, Bax, p-ERK, RARA, GAPDH (Santa Cruz Biotechnology Inc., Santa Cruz, CA). The blots were developed using the Supersignal West Pico Chemiluminescent Substrate Kit (Pierce, Rockford, Ill.).
(A western blot detects proteins with antibodies after separation by electrophoresis.)

Another test relates to HL-60 cells. Description: Western blot of cell lysates. The format is cell-based, human. Conditions: for phosphorylation of Rb / expression of Bax / expression of C/EBPβ: 3 days; for expression of Bax / expression of C/EBPβ / expression of phosphorylated-ERK: paricalcitol 0.01 μM, arsenic trioxide 0.8 μM; for expression of phosphorylated-ERK: peak after 1 day. As to the method:
as §1, §2

For test [2], the system named is HL-60 myeloid leukemia cells. The test is described as follows: MTT assay. Conditions: 4 days exposure. The format is cell-based, human. A general note: Tetrazolium dyes change colour on reduction, which living cells bring about.
In test [3] the test system is NB-4 myeloid leukemia cells. The test is described as follows: MTT assay. Conditions: 4 days exposure. The test is classed as cell-based, human.
In test [4] the test system is NB-4 cells. The test is described as follows: Cell cycle analysis by flow cytometry (sub-G1). Conditions: paricalcitol 0.1 μM and/or arsenic trioxide 0.6 μM, 4 days, control 4%. The test is classed as cell-based, human. The procedure: Cell cycle analysis was performed as follows: after treatment of 5×10^4 of cells with a selected compound, cells were collected, washed and suspended in cold PBS. Cells were fixed in chilled 75% methanol and stained with propidium iodine. Cell cycle status was analyzed on a Becton Dickinson Flow Cytometer used standart protocols.
(In flow cytometry, cells or beads pass a laser one at a time.)

A further test relates to wild type U937 cells. The test is described as follows: CD14 expression by flow cytometry. The format is cell-based, human. Conditions: paricalcitol 0.01 μM, arsenic trioxide 0.4 μM. From the text: To examine the association between the presence of the fusion protein and the effect of the combination treatment, an engineered U937 monocytic leukemia cell line (PR9) that has stable integration of the PML-RARa cDNA under the control of the Zn^2+-inducible murine metallothionein 1 promoter was used. Also used were U937 cells transfected with the MT vector (B41) as a control.

Entries after “also recorded” stand apart in the source; their conditions may differ.

On to `C[C@H](/C=C/[C@H](C)C(C)(C)O)[C@H]1CC[C@H]2/C(=C/C=C3C[C@@H](O)C[C@H](O)C3)CCC[C@]12C` [paricalcitol, 19-nor-1,25, (OH)2D3], for which, at 24-hydroxylase, the “levels of 24.25(OH)2D3” value is “increased”. In addition, the “apoptotic cells by TUNEL assay” value in the test on NCI-H929 cells was “increased”. Besides, the “apoptotic cells (TUNEL)” value in the test on NCI-H929 cells (10^−7M, 96 hrs, diluant control 4%) is on record as 31%. Also, the “induction of PTEN” value in the test with NB-4 cells [1] (10^−7M, 72 hr) is 25 fold. In the test with HL-60 cells, the “expression of VDR and RXR” value was “not substantially changed”; the “phosphorylation of Rb” value is on record as “increased”; the “expression of Bax” value was “not changed”; the “expression of C/EBPβ” value is reported as “increased”. Moreover, the “expression of phosphorylated-ERK” value in the test on HL-60 cells is on record as “increased”. In addition, in the test with HL-60 cells (10^−7M, 72 hr), the “induction of PTEN” value worked out at 7 fold, the “induction of p21WAF1” value was “approximately 7 fold” and the “induction of p27KIP1” value is “about 6 fold”. In addition, the “antiproliferative effect by MTT assay” value in test [2] is recorded as “suppressed the cell growth in a dose-dependent manner; also recorded: sensitive”. For the same compound, the “antiproliferative effect by MTT assay” value in test [3] is listed as “suppressed the cell growth in a dose-dependent manner; also recorded: sensitive”. For the same compound, the “cells in sub-G1 population” value in the test with NB-4 cells [4] is recorded as 5%. Besides, the CD14 expressing cells entry with wild type U937 cells was “increased CD14 expressing monoicytic cells”.

For arsenic trioxide, at 24-hydroxylase, the “levels of 24.25(OH)2D3” value is “decreased”. Further, the “apoptotic cells by TUNEL assay” value with NCI-H929 cells is “increased”. In the test with NB-4 cells [1] (arsenic trioxide 0.6 μM, paricalcitol 0.1 μM, 3 days), the “protein level of PML-RAR” value is “decreased the protein level of PML-RAR”. In addition, in the test with HL-60 cells, the “expression of VDR and RXR” value was “not substantially changed”; the “phosphorylation of Rb” value was “increased”; the “expression of Bax” value is “not changed”; the “expression of C/EBPβ” value is recorded as “also increased its expression level”. The “expression of phosphorylated-ERK” value in the test with HL-60 cells is listed as “also increased”. Besides, the “antiproliferative effect by MTT assay” value in test [2] is on record as “suppressed the cell growth in a dose-dependent manner”. For the same compound, the “antiproliferative effect by MTT assay” value in test [3] was “suppressed the cell growth in a dose-dependent manner”. For the same compound, the “cells in sub-G1 population” value with NB-4 cells [4] stood at 33%. In addition, in the test on wild type U937 cells, the CD14 expressing cells result was “did not induce CD14 expression”.

The record behind these values is patent publication US20050054620A1, “Paricalcitol as a chemotherapeutic agent” (priority 2003, published 2005).
